One may read the IC50 as the concentration that inhibits the measured activity by half. A word on the logD: it is lipophilicity at a set pH, counting ionised and neutral species. The low end stands for a more hydrophilic compound, the high end for a more lipophilic compound. Usually pKa stands for the negative logarithm of the acid dissociation constant. Lower therefore signals a group that gives up its proton readily. Broadly, the half-life is the time needed for the level to fall by half in the phase considered.

Molecules are shown by their SMILES. Where only a bound is given, the exact number is not on record here.

Series [1] concerns the target T1, Fructose-1,6-bisphosphatase 1 (Homo sapiens, UniProt P09467).
T1 sequence (P09467 whole entry): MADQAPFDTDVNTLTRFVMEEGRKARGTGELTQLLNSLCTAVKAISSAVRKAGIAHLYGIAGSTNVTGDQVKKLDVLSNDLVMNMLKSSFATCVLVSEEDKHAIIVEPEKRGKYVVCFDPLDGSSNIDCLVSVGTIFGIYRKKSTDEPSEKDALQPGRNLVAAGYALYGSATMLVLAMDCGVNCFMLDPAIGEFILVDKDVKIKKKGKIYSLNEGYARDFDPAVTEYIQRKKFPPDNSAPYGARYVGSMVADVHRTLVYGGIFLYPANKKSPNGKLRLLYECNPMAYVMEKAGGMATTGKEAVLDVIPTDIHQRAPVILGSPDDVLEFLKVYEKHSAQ
Nature of the series: Inhibition of human liver fructose-1,6-bisphosphatase.

Series [2] deals with T1, Fructose-1,6-bisphosphatase 1. Nature of the series: Inhibition of human liver fructose-1,6-bisphosphatase in presence of fructose-2,6-bisphosphate.
The nature of series [3]: Lipophilicity, Log D at pH 7.4. To be noted: buffer. The series is classed as physicochemical.
The nature of series [4]: Dissociation constant, pKa of the compound. The series is classed as physicochemical.
Series [5] is described as follows: Half life in mouse at 9.68 mg/kg, po. The series is classed as ADME, organism-based. Also noted: dose 9.68 mg/kg, route oral. The following applies: in vivo.
A short description of series [6]: Bioavailability in mouse at 9.68 mg/kg, po. The series is classed as ADME, organism-based. To be noted: in vivo.
A short description of series [7]: Half life in mouse at 10 mg/kg, po. The series is classed as ADME, organism-based. Further details: dose 10 mg/kg, route oral. The following applies: in vivo.
A short description of series [8]: Bioavailability in mouse at 10 mg/kg, po. The series is classed as ADME, organism-based. To be noted: in vivo.

Take `Cc1cccc(S(=O)(=O)NC(=O)NCC/C=C/CCNC(=O)NS(=O)(=O)c2cccc(C)c2)c1`: the IC50 is 0.068 µM in series [1] and 0.028 µM in series [2].
As to `Cc1cccc(S(=O)(=O)NC(=O)NCCC#CCCNC(=O)NS(=O)(=O)c2cccc(C)c2)c1`, the IC50 amounted to 0.095 µM in series [1] and 0.012 µM in series [2].
Regarding `O=C(NC[C@H]1CC[C@H](CNC(=O)NS(=O)(=O)c2cccc(Cl)c2)CC1)NS(=O)(=O)c1cccc(Cl)c1`, the figures for the IC50 in series [1] and in series [2] were 0.028 µM and 0.016 µM, respectively.
For the compound `O=C(NCCCCNC(=O)NS(=O)(=O)c1cccc(Cl)c1)NS(=O)(=O)c1cccc(Cl)c1`, the IC50 in series [1] was found to be 2.75 µM; in series [2], 0.264 µM.
`O=C(NCCCCCNC(=O)NS(=O)(=O)c1cccc(Cl)c1)NS(=O)(=O)c1cccc(Cl)c1`: the IC50 in series [1] stood at 0.05 µM; in series [2], 0.019 µM.
Take `Cc1cccc(S(=O)(=O)NC(=O)NCCCCCNC(=O)NS(=O)(=O)c2cccc(C)c2)c1`: the IC50 in series [1] was determined as 0.072 µM; in series [2] it was 0.022 µM.
For `Cc1cccc(S(=O)(=O)NC(=O)NCCOCCNC(=O)NS(=O)(=O)c2cccc(C)c2)c1`, the half-maximal inhibitory concentration (IC50) in series [1] stood at 0.827 µM; in series [2], 0.151 µM.
Take `O=C(NCCCCCCCCNC(=O)NS(=O)(=O)c1cccc(Cl)c1)NS(=O)(=O)c1cccc(Cl)c1`: the concentration for half-maximal inhibition (IC50) in series [1] is 0.045 µM; in series [2], 0.017 µM.
As for `O=C(NCC/C=C/CCNC(=O)NS(=O)(=O)c1cccc(Cl)c1)NS(=O)(=O)c1cccc(Cl)c1`, the half-maximal inhibitory concentration (IC50) came to 0.04 µM in series [1] and 0.014 µM in series [2].
With `O=C(NCCCCCCNC(=O)NS(=O)(=O)c1cccc(Cl)c1)NS(=O)(=O)c1cccc(Cl)c1`, in series [3], the logD was -0.93. The compound further showed a pKa in series [4] of 5.35. The IC50 in series [2] worked out at 0.008 µM. This compound also gave a half-life in series [5] of 1.83 h. The bioavailability in series [6] stood at 108%.
Consider `Cc1cccc(S(=O)(=O)NC(=O)NCCCCCCNC(=O)NS(=O)(=O)c2cccc(C)c2)c1`, for which the figures for the IC50 in series [1] and in series [2] were 0.024 µM and 0.012 µM, respectively.
As for `CCCCNC(=O)NS(=O)(=O)c1cccc(Cl)c1`, the IC50 stood at 196 µM in series [1] and 134 µM in series [2].
`CCCNC(=O)NS(=O)(=O)c1cccc(Cl)c1`: the IC50 in series [1] is 690 µM; in series [2], 234 µM.
`O=C(NCCCCCCCNC(=O)NS(=O)(=O)c1cccc(Cl)c1)NS(=O)(=O)c1cccc(Cl)c1`: the logD in series [3] was -0.43. In addition, in series [4], the pKa was found to be 5.12. In addition, the IC50 in series [2] was 0.004 µM.
For `Cc1cccc(S(=O)(=O)NC(=O)NCCCCCCCNC(=O)NS(=O)(=O)c2cccc(C)c2)c1`, the IC50 was determined as 0.012 µM in series [1] and 0.005 µM in series [2]. The same compound gave a half-life in series [7] of 3 h. For the same compound, the bioavailability in series [8] came out at 100%.
Regarding `O=C(NCCCNCCCNC(=O)NS(=O)(=O)c1cccc(Cl)c1)NS(=O)(=O)c1cccc(Cl)c1`, the IC50 stood at 43.8 µM in series [1] and 13.7 µM in series [2].
As for `Cc1cccc(S(=O)(=O)NC(=O)NCCNCCNC(=O)NS(=O)(=O)c2cccc(C)c2)c1`, the IC50 in series [1] and in series [2] was over 100 µM each time.
In the case of `Cc1cccc(S(=O)(=O)NC(=O)NCCSSCCNC(=O)NS(=O)(=O)c2cccc(C)c2)c1`, the results for the half-inhibitory concentration (IC50) in series [1] and in series [2] were 0.029 µM and 0.012 µM, respectively.
For `O=C(NCCCOCCCNC(=O)NS(=O)(=O)c1cccc(Cl)c1)NS(=O)(=O)c1cccc(Cl)c1`, in that order: 0.125 µM and 0.057 µM.
For `CCCCNC(=O)NS(=O)(=O)c1cccc(C)c1`, the IC50 in series [1] worked out at 178 µM; in series [2] it was 86.8 µM.
The matching figures for `Cc1cccc(S(=O)(=O)NC(=O)NCCS)c1`: 20.5 µM and 10.6 µM.
In the case of `O=C(NCc1ccc(CNC(=O)NS(=O)(=O)c2cccc(Cl)c2)cc1)NS(=O)(=O)c1cccc(Cl)c1`, the half-inhibitory concentration (IC50) in series [1] is 0.006 µM; in series [2], 0.004 µM.
Take `Cc1cccc(S(=O)(=O)NC(=O)NCc2ccc(CNC(=O)NS(=O)(=O)c3cccc(C)c3)cc2)c1`: the values for the IC50 in series [1] and in series [2] were 0.003 µM and 0.002 µM, respectively.
For `Cc1cccc(S(=O)(=O)NC(=O)NCc2cccc(CNC(=O)NS(=O)(=O)c3cccc(C)c3)c2)c1`, in that order: 0.012 µM and 0.006 µM.
As to `Cc1cccc(S(=O)(=O)NC(=O)NCCNC(=O)NS(=O)(=O)c2cccc(C)c2)c1`, the IC50 in series [1] and in series [2] was over 100 µM each time.
Regarding `Nc1ccc(S(=O)(=O)NC(=O)NCCS)cc1`, the half-maximal inhibitory concentration (IC50) in series [1] is 1.6 µM.
As to `Cc1cccc(S(=O)(=O)NC(=O)NCCCNC(=O)NS(=O)(=O)c2cccc(C)c2)c1`, the results for the IC50 in series [1] and in series [2] were over 100 µM and 38.5 µM, respectively.
As to `CSCCNC(=O)NS(=O)(=O)c1cccc(Cl)c1`, the IC50 in series [1] was found to be 515 µM; in series [2], 277 µM.
For `CCCNC(=O)NS(=O)(=O)c1cccc(C)c1`, the IC50 was over 1000 µM in series [1] and 320 µM in series [2].
As to `Cc1cccc(S(=O)(=O)NC(=O)NCCSCCNC(=O)NS(=O)(=O)c2cccc(C)c2)c1`, the 50% inhibitory concentration (IC50) in series [1] is 0.07 µM; in series [2] it was 0.018 µM.
As to `Cc1cccc(S(=O)(=O)NC(=O)NCCCCCCCCNC(=O)NS(=O)(=O)c2cccc(C)c2)c1`, the IC50 is 0.035 µM in series [1] and 0.008 µM in series [2].
For `O=C(NCCSSCCNC(=O)NS(=O)(=O)c1cccc(Cl)c1)NS(=O)(=O)c1cccc(Cl)c1`, the results for the IC50 in series [1] and in series [2] were 0.055 µM and 0.01 µM, respectively.
As to `Cc1cccc(S(=O)(=O)NC(=O)NCCCCNC(=O)NS(=O)(=O)c2cccc(C)c2)c1`, the half-maximal inhibitory concentration (IC50) in series [1] worked out at 3.4 µM; in series [2], 0.542 µM.
